Measured values as given in PMC10620772, “Design, synthesis, and biological evaluation of new pyrimidine-5-carbonitrile derivatives as novel anti-cancer, dual EGFR^WT/COX-2 inhibitors with docking studies” (RSC Advances, 2023).

How the values were obtained:
Format in all cases: cell-based, human
786–0 = test: NCI60 antitumor screening; conditions: 10 μM one-dose
SF-539 = test: NCI60 antitumor screening; conditions: 10 μM one-dose
NCI-H226 = test: NCI60 antitumor screening; conditions: 10 μM one-dose
SNB-19 = test: NCI60 antitumor screening; conditions: 10 μM one-dose
NCI-H460 = test: NCI60 antitumor screening; conditions: 10 μM one-dose
RPMI-8226 = test: NCI60 antitumor screening; conditions: 10 μM one-dose
OVCAR-8 = test: NCI60 antitumor screening; conditions: 10 μM one-dose
A549/ATCC = test: NCI60 antitumor screening; conditions: 10 μM one-dose
RXF 393 = test: NCI60 antitumor screening; conditions: 10 μM one-dose
SR = test: NCI60 antitumor screening; conditions: 10 μM one-dose
UACC-62 = test: NCI60 antitumor screening; conditions: 10 μM one-dose
OVCAR-4 = test: NCI60 antitumor screening; conditions: 10 μM one-dose
UO-31 = test: NCI60 antitumor screening; conditions: 10 μM one-dose
SNB-75 = test: NCI60 antitumor screening; conditions: 10 μM one-dose
HS 578T = test: NCI60 antitumor screening; conditions: 10 μM one-dose
MDA-MB-231/ATCC = test: NCI60 antitumor screening; conditions: 10 μM one-dose
SN12C = test: NCI60 antitumor screening; conditions: 10 μM one-dose
NCI/ADR-RES = test: NCI60 antitumor screening; conditions: 10 μM one-dose
MOLT-4 = test: NCI60 antitumor screening; conditions: 10 μM one-dose
HCT-116 = test: NCI60 antitumor screening; conditions: 10 μM one-dose
SK-MEL-5 = test: NCI60 antitumor screening; conditions: 10 μM one-dose
CAKI-1 = test: NCI60 antitumor screening; conditions: 10 μM one-dose
MDA-MB-468 = test: NCI60 antitumor screening; conditions: 10 μM one-dose
HL-60(TB) = test: NCI60 antitumor screening; conditions: 10 μM one-dose
MALME-3M = test: NCI60 antitumor screening; conditions: 10 μM one-dose
U251 = test: NCI60 antitumor screening; conditions: 10 μM one-dose
SF-268 = test: NCI60 antitumor screening; conditions: 10 μM one-dose
HOP-92 = test: NCI60 antitumor screening; conditions: 10 μM one-dose
HOP-62 = test: NCI60 antitumor screening; conditions: 10 μM one-dose
DU-145 = test: NCI60 antitumor screening; conditions: 10 μM one-dose
UACC-257 = test: NCI60 antitumor screening; conditions: 10 μM one-dose
KM12 = test: NCI60 antitumor screening; conditions: 10 μM one-dose
SF-295 = test: NCI60 antitumor screening; conditions: 10 μM one-dose
NCI-H23 = test: NCI60 antitumor screening; conditions: 10 μM one-dose
OVCAR-3 = test: NCI60 antitumor screening; conditions: 10 μM one-dose
BT-549 = test: NCI60 antitumor screening; conditions: 10 μM one-dose
HCT-15 = test: NCI60 antitumor screening; conditions: 10 μM one-dose
T-47D = test: NCI60 antitumor screening; conditions: 10 μM one-dose
EKVX = test: NCI60 antitumor screening; conditions: 10 μM one-dose
HT29 = test: NCI60 antitumor screening; conditions: 10 μM one-dose
LOX IMVI = test: NCI60 antitumor screening; conditions: 10 μM one-dose
COLO 205 = test: NCI60 antitumor screening; conditions: 10 μM one-dose
M14 = test: NCI60 antitumor screening; conditions: 10 μM one-dose
SK-OV-3 = test: NCI60 antitumor screening; conditions: 10 μM one-dose
NCI-H322M = test: NCI60 antitumor screening; conditions: 10 μM one-dose
PC-3 = test: NCI60 antitumor screening; conditions: 10 μM one-dose
IGROV1 = test: NCI60 antitumor screening; conditions: 10 μM one-dose
HCC-2998 = test: NCI60 antitumor screening; conditions: 10 μM one-dose
MDA-MB-435 = test: NCI60 antitumor screening; conditions: 10 μM one-dose
TK-10 = test: NCI60 antitumor screening; conditions: 10 μM one-dose
NCI-H522 = test: NCI60 antitumor screening; conditions: 10 μM one-dose
A498 = test: NCI60 antitumor screening; conditions: 10 μM one-dose
NCI60 cell lines panel = test: NCI60 antitumor screening, full panel; conditions: 10 μM one-dose, mean over NCI60
Protocol: The National Cancer Institute (NCI), Bethesda, Maryland, United States, selected all of the novel synthesized compounds (2b–d, 3a–d and 4a–p) for in vitro antitumor screening at a single concentration of 10 μM toward the NCI60 cell lines panel covering leukaemia, non-small cell lungs, colon, central nervous system (CNS), melanoma, ovarian, renal, prostate, and breast cancer cells.[32–35] The data were reported as a mean graph of the percent growth of the treated cell lines and expressed as percentage growth inhibition (GI%) in Table 1 and ESI 1.
(2) The molar concentration of the compound responsible for total growth inhibition, also known as total growth inhibition (TGI).
Regarding subpanel selectivity toward certain cancer type, the method of determining a compound's selectivity index is to divide the full panel MG-MID (μM) value by each single subpanel. Values above six indicate high selectivity against the subpanel; moderate selectivity is denoted by values between three and six. Conversely, compounds are termed nonselective if their selectivity is less than three.[30,37]

SK-MEL-28 = test: NCI60 antitumor screening; conditions: 10 μM one-dose
OVCAR-5 = test: NCI60 antitumor screening; conditions: 10 μM one-dose
SW-620 = test: NCI60 antitumor screening; conditions: 10 μM one-dose
SK-MEL-2 = test: NCI60 antitumor screening; conditions: 10 μM one-dose
K-562 = test: NCI60 antitumor screening; conditions: 10 μM one-dose
ACHN = test: NCI60 antitumor screening; conditions: 10 μM one-dose
MCF7 = test: NCI60 antitumor screening; conditions: 10 μM one-dose
CCRF-CEM = test: NCI60 antitumor screening; conditions: 10 μM one-dose

Cc1ccc(CSc2nc(-c3ccc(F)cc3)c(C#N)c(=O)[nH]2)cc1 [2d, 4-(4-Fluorophenyl)-2-((4-methylbenzyl)thio)-6-oxo-1,6-dihydropyrimidine-5-carbonitrile]
GI% (786–0): — (GI% < 10)
GI% (SF-539): — (GI% < 10)
GI% (NCI-H226): — (GI% < 10)
GI% (SNB-19): — (GI% < 10)
GI% (NCI-H460): — (GI% < 10)
GI% (RPMI-8226): — (GI% < 10)
GI% (OVCAR-8): — (GI% < 10)
GI% (A549/ATCC): 10.16%
GI% (RXF 393): — (GI% < 10)
GI% (SR): — (GI% < 10)
GI% (UACC-62): — (GI% < 10)
GI% (OVCAR-4): — (GI% < 10)
GI% (UO-31): — (GI% < 10)
GI% (SNB-75): — (GI% < 10)
GI% (HS 578T): — (GI% < 10)
GI% (MDA-MB-231/ATCC): — (GI% < 10)
GI% (SN12C): — (GI% < 10)
GI% (NCI/ADR-RES): — (GI% < 10)
GI% (MOLT-4): 11.64%
GI% (HCT-116): — (GI% < 10)
GI% (SK-MEL-5): — (GI% < 10)
GI% (CAKI-1): — (GI% < 10)
GI% (MDA-MB-468): — (GI% < 10)
GI% (HL-60(TB)): 43.38%
GI% (MALME-3M): — (GI% < 10)
GI% (U251): — (GI% < 10)
GI% (SF-268): — (GI% < 10)
GI% (HOP-92): — (GI% < 10)
GI% (HOP-62): — (GI% < 10)
GI% (DU-145): — (GI% < 10)
GI% (UACC-257): — (GI% < 10)
GI% (KM12): — (GI% < 10)
GI% (SF-295): — (GI% < 10)
GI% (NCI-H23): — (GI% < 10)
GI% (OVCAR-3): — (GI% < 10)
GI% (BT-549): 15.75%
GI% (HCT-15): 15.77%
GI% (T-47D): 13.50%
GI% (EKVX): — (GI% < 10)
GI% (HT29): 10.72%
GI% (LOX IMVI): — (GI% < 10)
GI% (COLO 205): — (GI% < 10)
GI% (M14): — (GI% < 10)
GI% (SK-OV-3): — (GI% < 10)
GI% (NCI-H322M): — (GI% < 10)
GI% (PC-3): — (GI% < 10)
GI% (IGROV1): — (GI% < 10)
GI% (HCC-2998): — (GI% < 10)
GI% (MDA-MB-435): — (GI% < 10)
GI% (TK-10): — (GI% < 10)
GI% (NCI-H522): 12.91%
GI% (A498): — (GI% < 10)
Mean GI% (NCI60 cell lines panel): — (GI% < 10)
GI% (SK-MEL-28): — (GI% < 10)
GI% (OVCAR-5): — (GI% < 10)
GI% (SW-620): — (GI% < 10)
GI% (SK-MEL-2): — (GI% < 10)
GI% (K-562): — (GI% < 10)
GI% (ACHN): — (GI% < 10)
GI% (MCF7): 10.82%
GI% (CCRF-CEM): — (GI% < 10)
